According to PubChem BioAssay (NCI):
Where “and” joins values, the source holds several entries; their conditions need not be identical. Equal values may be shown once.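 Tested at 5 concentrations; 48 h exposure; 96-well plates; endpoints linearly interpolated, else capped at highest concentration. GI50 marks 50% less growth. TGI: total growth inhibition.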

Key:
Assay in all cases: NCI-60 cell line screen, 48 h
[1] = test system: U251 CNS
[2] = test system: SW-620 colon
[3] = test system: CAKI-1 renal
[4] = test system: HL-60(TB) leukemia
[5] = test system: K-562 leukemia
[6] = test system: SF-295 CNS
[7] = test system: RXF 393 renal
[8] = test system: M14 melanoma
[9] = test system: MOLT-4 leukemia
[10] = test system: NCI/ADR-RES ovarian

With `O=C(O)CNc1c2ccccc2nc2ccccc12` the TGI [1] was > 100 µM, the TGI [2] was > 100 µM and the TGI [3] was > 100 µM. The TGI [4] was > 100 µM, the TGI [5] was > 100 µM and the TGI [6] was > 100 µM. The TGI [7] was > 100 µM, the TGI [8] was > 100 µM and the TGI [9] was > 100 µM.

In the case of `C/C(O)=C(\N=O)C(=O)NCCc1ccccc1`, the TGI [1] was > 100 µM, the TGI [2] was > 55.2 µM and the TGI [3] was > 100 µM. For the same compound, the TGI [4] was > 100 µM, the TGI [5] was > 100 µM and the TGI [6] was > 100 µM. For the same compound, the TGI [7] was > 100 µM, the TGI [8] was > 100 µM and the TGI [9] was > 100 µM.

With `O=C1NC(=S)NC(=O)C1=Cc1cc2c(cc1[N+](=O)[O-])OCO2` the TGI [1] was > 100 µM, the TGI [2] was > 100 µM and the TGI [3] was > 100 µM. The TGI [4] was > 100 µM, the TGI [5] was > 100 µM and the TGI [7] was > 100 µM. For the same compound, the TGI [8] was > 100 µM and the TGI [9] was > 100 µM.

For `Clc1ccc(Cl)c2[s+]snc12`, the TGI [1] was > 100 µM, the TGI [2] was > 51.9 µM and the TGI [3] was > 100 µM. For the same compound, the TGI [4] was > 100 µM, the TGI [5] was > 67.9 µM and the TGI [6] was > 100 µM. For the same compound, the TGI [8] was > 100 µM and the TGI [9] was > 100 µM.

In the case of `N#CC(C(=O)/C(=N/N)C(C#N)c1ccc(Cl)cc1)c1ccc(Cl)cc1` (centres undefined), the TGI [1] was > 100 µM, the TGI [2] was > 100 µM and the TGI [4] was > 100 µM. The TGI [5] was > 100 µM, the TGI [6] was > 100 µM and the TGI [7] was > 100 µM. The TGI [8] was > 100 µM and the TGI [9] was > 100 µM.

With `Cc1ccccc1-c1c(N)nc(NC#N)nc1C(=O)Nc1ccccc1` the TGI [1] was > 100 µM, the TGI [2] was > 100 µM and the TGI [3] was > 100 µM. For the same compound, the TGI [5] was > 100 µM, the TGI [6] was > 100 µM and the TGI [7] was > 100 µM. The TGI [8] was > 100 µM and the TGI [9] was > 100 µM.

`COC(=O)C1CC(C(=O)OC)c2nc3cc(C)ccc3nc21` (centres undefined) was tested, and the TGI [1] was > 100 µM, the TGI [2] was > 100 µM and the TGI [3] was > 100 µM. The TGI [4] was > 100 µM, the TGI [5] was > 100 µM and the TGI [6] was > 100 µM. The TGI [8] was > 100 µM and the TGI [9] was > 100 µM.

For `COc1ccc(/C=N/N=C(\N)NO)cc1OC`, the TGI [1] was > 100 µM, the TGI [2] was > 100 µM and the TGI [3] was 92.3 µM. For the same compound, the TGI [4] was > 100 µM, the TGI [5] was > 100 µM and the TGI [6] was > 100 µM. For the same compound, the TGI [7] was 67.4 µM, the TGI [8] was 96.9 µM and the TGI [9] was > 100 µM.

`CC(=O)Nc1ccc(C(=O)N2N=C(C)/C(=C/c3ccccc3O)C2=O)cc1` was tested, and the TGI [2] was > 100 µM, the TGI [3] was > 100 µM and the TGI [4] was > 100 µM. The TGI [5] was > 100 µM, the TGI [6] was > 100 µM and the TGI [8] was > 100 µM. The TGI [9] was > 100 µM.

For `N#CC(NNC(=O)c1ccccc1O)c1ccc(O)cc1` (centres undefined), the TGI [1] was > 100 µM, the TGI [2] was > 100 µM and the TGI [3] was 98.9 µM. The TGI [4] was 74.9 µM, the TGI [5] was > 100 µM and the TGI [6] was > 100 µM. The TGI [7] was 12.2 µM, the TGI [8] was > 100 µM and the TGI [9] was > 100 µM.

For `Nc1ccc2c(SCCSc3c4ccccc4nc4cc(N)ccc34)c3ccccc3nc2c1`, the TGI [1] was > 100 µM, the TGI [2] was > 100 µM and the TGI [3] was > 100 µM. The TGI [5] was > 100 µM, the TGI [10] was > 100 µM and the TGI [6] was > 100 µM. The TGI [8] was > 100 µM and the TGI [9] was 39.3 µM.

In the case of `CCCCCCCCCC(=O)CC(=O)c1ccc(O)cc1O`, the TGI [1] was 64.9 µM, the TGI [2] was > 100 µM and the TGI [3] was 85.9 µM. For the same compound, the TGI [4] was 53.9 µM, the TGI [5] was > 100 µM and the TGI [6] was 70.1 µM. It also gave a TGI [7] of 72.1 µM, a TGI [8] of 54.7 µM and a TGI [9] of 49.7 µM.

`Cc1cccc(C(C)(C)C)c1NC(=O)C(=O)C(C(=O)/C=C\c1ccccc1)C1OC(=O)c2ccccc21` (centres undefined) was tested, and the TGI [1] was > 100 µM, the TGI [2] was > 100 µM and the TGI [3] was > 100 µM. For the same compound, the TGI [4] was > 100 µM, the TGI [5] was > 100 µM and the TGI [6] was > 100 µM. The TGI [7] was > 100 µM, the TGI [8] was > 100 µM and the TGI [9] was > 100 µM.

For `[N-]=[N+]=NC(c1cn(C2CC(O)C(CO)O2)c(=O)[nH]c1=O)C(Br)I` (centres undefined), the TGI [1] was > 100 µM, the TGI [2] was > 100 µM and the TGI [3] was > 100 µM. The TGI [4] was > 100 µM, the TGI [5] was > 100 µM and the TGI [6] was > 100 µM. The TGI [7] was > 100 µM, the TGI [8] was > 100 µM and the TGI [9] was > 100 µM.

`COc1ccc2[nH]c(-c3ccccn3)cc(=O)c2c1` was tested, and the TGI [2] was > 100 µM, the TGI [4] was > 100 µM and the TGI [5] was > 100 µM. For the same compound, the GI50 [6] was 51.5 µM, the TGI [6] was > 100 µM and the GI50 [7] was 2.49 µM. For the same compound, the TGI [7] was 33.8 µM, the TGI [8] was 90.9 µM and the TGI [9] was > 100 µM.

`Clc1ccc(-n2nnc(C3=NCCN3)c2-c2ccccc2)cc1` was tested, and the TGI [1] was > 100 µM, the TGI [2] was > 100 µM and the TGI [3] was > 100 µM. The TGI [4] was > 100 µM, the TGI [5] was > 100 µM and the TGI [6] was > 100 µM. The TGI [7] was > 100 µM, the TGI [8] was > 100 µM and the TGI [9] was > 100 µM.

With `CC(=O)CCCCCCCCCCCC[C@@H]1CC[C@H](C)[C@H](O)N1` the TGI [1] was > 100 µM, the TGI [2] was > 100 µM and the TGI [3] was > 100 µM. For the same compound, the TGI [4] was > 100 µM, the TGI [5] was > 100 µM and the TGI [6] was > 100 µM. For the same compound, the TGI [7] was > 100 µM, the TGI [8] was > 100 µM and the TGI [9] was > 100 µM.

In the case of `O=c1c2ccccc2c2ccccc2c(=O)n1-c1cc2c3ccccc3ccc2c2ccccc12`, the TGI [1] was > 100 µM, the TGI [2] was > 100 µM and the TGI [3] was > 100 µM. For the same compound, the TGI [10] was > 100 µM, the TGI [6] was > 100 µM and the TGI [7] was > 100 µM. The TGI [8] was > 100 µM.

For `COC(=O)C(CCS(=O)(=O)CC(=O)C(=O)Nc1cccc(C(C)=O)c1)C(=O)OC`, the TGI [1] was > 100 µM, the TGI [2] was > 100 µM and the TGI [3] was > 100 µM. The TGI [4] was > 100 µM, the TGI [5] was > 100 µM and the TGI [6] was > 100 µM. For the same compound, the TGI [7] was > 100 µM, the TGI [8] was > 100 µM and the TGI [9] was > 100 µM.

For `COCCn1cc(-c2csc(-c3c[nH]c4ccccc34)n2)c2cccnc21`, the GI50 [1] was 6.12 µM, the TGI [1] was > 100 µM and the GI50 [2] was 3.52 µM. The TGI [2] was > 100 µM, the GI50 [3] was 8.36 µM and the TGI [3] was > 100 µM. The GI50 [5] was 2.8 µM, the TGI [5] was > 100 µM and the GI50 [10] was 1.76 µM. For the same compound, the TGI [10] was 6.9 µM, the GI50 [6] was 3.35 µM and the TGI [6] was > 100 µM. The GI50 [7] was 5.76 µM, the TGI [7] was 64.3 µM and the GI50 [8] was 3.22 µM. The TGI [8] was > 100 µM.

`CC1OC(n2ncc(=O)[nH]c2=O)C=CC1=O` (centres undefined) was tested, and the TGI [1] was > 100 µM, the GI50 [2] was > 100 µM and 44.1 µM and the TGI [2] was > 100 µM. For the same compound, the TGI [3] was > 100 µM, the TGI [4] was 57.5 µM and 52.7 µM and the TGI [5] was > 100 µM. The TGI [6] was > 100 µM, the GI50 [8] was 89.4 µM and 20.5 µM and the TGI [8] was > 100 µM and 60.5 µM. The GI50 [9] was 81.1 µM and 30.2 µM and the TGI [9] was > 100 µM.

In the case of `CCCC1c2c(ccc3ccccc23)Oc2ccc3ccccc3c21`, the TGI [1] was > 100 µM, the TGI [2] was > 100 µM and the TGI [3] was > 100 µM. For the same compound, the TGI [10] was > 100 µM, the TGI [6] was 88.6 µM and the TGI [7] was > 100 µM. For the same compound, the TGI [8] was > 100 µM and the TGI [9] was > 100 µM.

For `CC(C)C(=O)/C=C/c1ccccc1`, the TGI [1] was > 100 µM, the TGI [2] was > 100 µM and the TGI [4] was > 100 µM. The TGI [5] was > 100 µM, the TGI [6] was > 100 µM and the TGI [7] was > 100 µM. The TGI [8] was > 100 µM and the TGI [9] was > 100 µM.
